Reference: patent US7410963B2, “Benzo-1,4-diazepin-2-one derivatives as phosphodiesterase PDE2 inhibitors, preparation and therapeutic use thereof” (VIA Pharmaceuticals, Inc., priority 2003, dated 2008)

Target: T1, PDE2 (Bos taurus, UniProt P14099)
T1 sequence (P14099 1-921): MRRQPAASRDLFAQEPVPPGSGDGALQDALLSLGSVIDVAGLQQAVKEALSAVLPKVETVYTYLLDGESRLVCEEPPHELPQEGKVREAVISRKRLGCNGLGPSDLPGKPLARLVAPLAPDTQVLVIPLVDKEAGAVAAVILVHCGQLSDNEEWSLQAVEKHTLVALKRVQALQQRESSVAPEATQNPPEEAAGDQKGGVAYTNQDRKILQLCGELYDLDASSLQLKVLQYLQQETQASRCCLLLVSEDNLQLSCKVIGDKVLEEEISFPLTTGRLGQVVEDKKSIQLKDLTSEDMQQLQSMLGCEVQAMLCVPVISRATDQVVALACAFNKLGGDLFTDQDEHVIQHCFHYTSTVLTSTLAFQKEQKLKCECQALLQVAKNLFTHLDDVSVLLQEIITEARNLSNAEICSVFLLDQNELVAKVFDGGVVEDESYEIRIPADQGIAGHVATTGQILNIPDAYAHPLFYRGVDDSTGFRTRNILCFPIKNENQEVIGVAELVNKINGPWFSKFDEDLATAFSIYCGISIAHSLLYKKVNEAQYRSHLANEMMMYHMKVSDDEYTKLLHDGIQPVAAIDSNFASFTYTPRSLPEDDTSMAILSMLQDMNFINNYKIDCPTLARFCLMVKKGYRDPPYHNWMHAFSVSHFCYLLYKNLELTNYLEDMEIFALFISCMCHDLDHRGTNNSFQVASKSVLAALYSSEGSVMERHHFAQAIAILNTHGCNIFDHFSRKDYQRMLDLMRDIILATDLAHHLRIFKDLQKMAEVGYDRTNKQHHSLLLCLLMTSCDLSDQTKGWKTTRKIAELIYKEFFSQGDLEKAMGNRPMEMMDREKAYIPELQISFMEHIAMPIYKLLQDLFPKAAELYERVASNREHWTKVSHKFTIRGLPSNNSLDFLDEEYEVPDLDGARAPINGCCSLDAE
Assay: Radioenzymatic phosphodiesterase assay: PDE2 inhibition
Format: biochemical, bovine
Conditions: Table 1; 10 μM test compound; read-out: PDE2 percentage of inhibition at 10 μM
Experimental: Nucleoside radioactivity was determined by liquid scintillation.

| Structure (SMILES) | inhibition at 10 µM [%] |
| --- | --- |
| CN1C(=O)CN=C(c2cccc(N)c2)c2cc(-c3ccccc3)ccc21 [Example 68, 5-(3-Amino-phenyl)-1-methyl-7-phenyl-1,3-dihydro-benzo[e][1,4]diazepin-2-one] | 52 |
| COc1ccccc1-c1cc2c(cc1Oc1ccccc1)N(C)C(=O)CN=C2c1cccc(C(N)=O)c1 [Example 74, 3-[7-(2-Methoxy-phenyl)-1-methyl-2-oxo-8-phenoxy-2,3-dihydro-1H-benzo[e][1,4]diazepin-5-yl]-benzamide] | 98 |
| COc1ccc(C2=NCC(=O)Nc3cc(OC)c(-c4ccccc4)cc32)cc1 [Example 76, 5-(4-Methoxy-phenyl)-8-methoxy-7-phenyl-1,3-dihydro-benzo[e][1,4]diazepin-2-one] | 91 |
| COc1cccc(C2=NCC(=O)N(C)c3ccc(-c4ccccc4)cc32)c1 [Example 79, 5-(3-Methoxy-phenyl)-1-methyl-7-phenyl-1,3-dihydro-benzo[e][1,4]diazepin-2-one] | 84 |
| COc1ccc(Cl)cc1-c1ccc2c(c1)C(c1cccc(C#N)c1)=NCC(=O)N2C [Example 81, 3-[7-(5-Chloro,2-methoxy-phenyl)-1-methyl-2-oxo-2,3-dihydro-1H-benzo[e][1,4]diazepin-5-yl]-benzonitrile] | 22 |
| COc1cccc(Cl)c1-c1ccc2c(c1)C(c1cccc(C#N)c1)=NCC(=O)N2C [Example 82, 3-[7-(2-Chloro,6-methoxy-phenyl)-1-methyl-2-oxo-2,3-dihydro-1H-benzo[e][1,4]diazepin-5-yl]-benzonitrile] | 92 |
| CN1C(=O)CN=C(c2cccc(C(N)=O)c2)c2cc(-c3ccccc3)c(OC(F)(F)F)cc21 [Example 87, 3-(1-Methyl-2-oxo-7-phenyl-8-trifluoromethoxy-2,3-dihydro-1H-benzo[e][1,4]diazepin-5-yl)-benzamide] | 93 |
| CN1C(=O)CN=C(c2cccc(C(N)=O)c2)c2cc(-c3ccccc3Oc3ccccc3)ccc21 [Example 91, 3-[1-Methyl-2-oxo-7-(2-phenoxy-phenyl)-2,3-dihydro-1H-benzo[e][1,4]diazepin-5-yl]-benzamide] | 96 |
| COc1cc2c(cc1-c1ccccc1)C(c1ccccc1Br)=NCC(=O)N2 [Example 102, 5-(2-Bromo-phenyl)-8-methoxy-7-phenyl-1,3-dihydro-benzo[e][1,4]diazepin-2-one] | 48 |

Same assay, conditions: read-out: PDE2 percentage of inhibition at 10 μM

| Structure (SMILES) | inhibition at 10 µM [%] |
| --- | --- |
| CCCCC#Cc1cccc(C2=NCC(=O)N(C)c3cc(OC)c(-c4ccccc4)cc32)c1 [Example 66, 5-(3-Hex-1-ynyl-phenyl)-8-methoxy-1-methyl-7-phenyl-1,3-dihydro-benzo[e][1,4]diazepin-2-one] | 86 |
| COc1cc2c(cc1-c1ccccc1)C(c1cccc(C#CCNC(=O)OC(C)(C)C)c1)=NCC(=O)N2C [Example 67, {3-[3-(8-Methoxy-1-methyl-2-oxo-7-phenyl-2,3-dihydro-1H-benzo[e][1,4]diazepin-5-yl)-phenyl]-prop-2-ynyl}-carbamic acid tert-butyl ester] | 60 |
| CN1C(=O)CN=C(c2cccc(C#N)c2)c2cc(-c3ccccc3)c(Oc3ccccc3)cc21 [Example 69, 3-(1-Methyl-2-oxo-8-phenoxy-7-phenyl-2,3-dihydro-1H-benzo[e][1,4]diazepin-5-yl)-benzonitrile] | 4 |
| COc1ccccc1-c1cc2c(cc1Oc1ccccc1)N(C)C(=O)CN=C2c1cccc(C#N)c1 [Example 70, 3-[7-(2-Methoxy-phenyl)-1-methyl-2-oxo-8-phenoxy-2,3-dihydro-1H-benzo[e][1,4]diazepin-5-yl]-benzonitrile] | 95 |
| CN1C(=O)CN=C(c2cccc(C#N)c2)c2cc(-c3ccccc3Cl)c(Oc3ccccc3)cc21 [Example 71, 3-[7-(2-Chloro-phenyl)-1-methyl-2-oxo-8-phenoxy-2,3-dihydro-1H-benzo[e][1,4]diazepin-5-yl]-benzonitrile] | 82 |
| CN1C(=O)CN=C(c2cccc(C(N)=O)c2)c2cc(-c3ccccc3)c(Oc3ccccc3)cc21 [Example 72, 3-(1-Methyl-2-oxo-8-phenoxy-7-phenyl-2,3-dihydro-1H-benzo[e][1,4]diazepin-5-yl)-benzamide] | 28 |
| CN1C(=O)CN=C(c2cccc(C(N)=O)c2)c2cc(-c3ccccc3Cl)c(Oc3ccccc3)cc21 [Example 73, 3-[7-(2-Chloro-phenyl)-1-methyl-2-oxo-8-phenoxy-2,3-dihydro-1H-benzo[e][1,4]diazepin-5-yl]-benzamide] | 96 |
| COc1cccc(OC)c1-c1ccc2c(c1)C(c1ccc(C)c([N+](=O)[O-])c1)=NCC(=O)N2C [Example 77, 7-(2,6-Dimethoxy-phenyl)-1-methyl-5-(4-methyl-3-nitro-phenyl)-1,3-dihydro-benzo[e][1,4]diazepin-2-one] | 99 |
| COc1cc2c(cc1-c1ccccc1OC(C)C)C(c1cccc(C(N)=O)c1)=NCC(=O)N2C [Example 78, 3-[7-(2-Isopropoxy-phenyl)-8-methoxy-1-methyl-2-oxo-2,3-dihydro-1H-benzo[e][1,4]diazepin-5-yl]-benzamide] | 97 |
| N#Cc1cccc(C2=NCC(=O)Nc3cc(OC(F)(F)F)c(-c4ccccc4)cc32)c1 [Example 85, 3-(2-Oxo-7-phenyl-8-trifluoromethoxy-2,3-dihydro-1H-benzo[e][1,4]diazepin-5-yl)-benzonitrile] | 70 |
| CN1C(=O)CN=C(c2cccc(C#N)c2)c2cc(-c3ccccc3)c(OC(F)(F)F)cc21 [Example 86, 3-(1-Methyl-2-oxo-7-phenyl-8-trifluoromethoxy-2,3-dihydro-1H-benzo[e][1,4]diazepin-5-yl)-benzonitrile] | 85 |
| CN1C(=O)CN=C(c2cccc(C#N)c2)c2cc(-c3ccccc3Oc3ccccc3)ccc21 [Example 88, 3-[1-Methyl-2-oxo-7-(2-phenoxy-phenyl)-2,3-dihydro-1H-benzo[e][1,4]diazepin-5-yl]-benzonitrile] | 89 |
| COc1cc2c(cc1-c1c(OC)cccc1OC)C(c1cccc(C#N)c1)=NCC(=O)N2C [Example 89, 3-[7-(2,6-Dimethoxy-phenyl)-8-methoxy-1-methyl-2-oxo-2,3-dihydro-1H-benzo[e][1,4]diazepin-5-yl]-benzonitrile] | 99 |
| COc1cc2c(cc1-c1ccccc1Oc1ccccc1)C(c1cccc(C#N)c1)=NCC(=O)N2C [Example 90, 3-[8-Methoxy-1-methyl-2-oxo-7-(2-phenoxy-phenyl)-2,3-dihydro-1H-benzo[e][1,4]diazepin-5-yl]-benzonitrile] | 98 |
| COc1cc2c(cc1-c1ccccc1)C(c1cccc(CCCCc3ccccc3)c1)=NCC(=O)N2C [Example 94, 8-Methoxy-1-methyl-7-phenyl-5-[3-(4-phenyl-butyl)-phenyl]-1,3-dihydro-benzo[e][1,4]diazepin-2-one] | 79 |
| COCC#Cc1cccc(C2=NCC(=O)N(C)c3cc(OC)c(-c4ccccc4)cc32)c1 [Example 95, 8-Methoxy-5-[3-(3-methoxy-prop-1-ynyl)-phenyl]-1-methyl-7-phenyl-1,3-dihydro-benzo[e][1,4]diazepin-2-one] | 89 |
| COc1cc2c(cc1-c1ccccc1)C(c1ccc(C#CCNC(=O)OC(C)(C)C)cc1)=NCC(=O)N2C [Example 96, {3-[4-(8-Methoxy-1-methyl-2-oxo-7-phenyl-2,3-dihydro-1H-benzo[e][1,4]diazepin-5-yl)-phenyl]-prop-2-ynyl}-carbamic acid tert-butyl ester] | 21 |
| COc1cc2c(cc1-c1ccccc1)C(c1ccc(C#Cc3ccccc3)cc1)=NCC(=O)N2C [Example 97, 8-Methoxy-1-methyl-7-phenyl-5-(4-phenylethynyl-phenyl)-1,3-dihydro-benzo[e][1,4]diazepin-2-one] | 45 |
| COCC#Cc1ccc(C2=NCC(=O)N(C)c3cc(OC)c(-c4ccccc4)cc32)cc1 [Example 98, 8-Methoxy-5-[4-(3-methoxy-prop-1-ynyl)-phenyl]-1-methyl-7-phenyl-1,3-dihydro-benzo[e][1,4]diazepin-2-one] | 80 |
| COc1cccc(OC)c1-c1ccc2c(c1)C(c1ccc(Cl)c(Cl)c1)=NCC(=O)N2C [Example 99, 5-(3,4-Dichloro-phenyl)-7-(2,6-dimethoxy-phenyl)-1-methyl-1,3-dihydro-benzo[e][1,4]diazepin-2-one] | 98 |
| COc1ccc(C2=NCC(=O)N(C)c3ccc(-c4c(OC)cccc4OC)cc32)cc1OC [Example 101, 5-(3,4-Dimethoxy-phenyl)-7-(2,6-dimethoxy-phenyl)-1-methyl-1,3-dihydro-benzo[e][1,4]diazepin-2-one] | 99 |
